Test results as given in ChEMBL document CHEMBL1157539, “Thousands of chemical starting points for antimalarial lead identification” (Nature, 2010).

Each compound was assayed on Plasmodium falciparum (assay: GSK_TCMDC: Inhibition of Plasmodium falciparum 3D7 in whole erythrocytes, using parasite LDH activity as an index of growth.). Settings: Plasmodium falciparum, 3D7.
Assay type: functional, organism-based

Question: `Cc1cc(N[C@@H](Cc2ccccc2)C(=O)NCc2cccs2)nc(NCC2CCCCC2)n1` was tested. Which XC50 did it give?
Answer: 988 nM

Question: For `CC1(C)NC(N)=NC(=N)N1OCCc1cccc2ccccc12`, which XC50 is on record?
Answer: 3.2 nM

Question: Which XC50 does the source give for `Nc1cnc(C#Cc2cc3ncnc(N(CCN4CCOCC4)c4ccc(OCc5cccc(F)c5)c(Cl)c4)c3s2)cn1` here?
Answer: 1050 nM

Question: Which XC50 does the source give for `COc1ccc(O)cc1Cc1cnc2nc(N)nc(N)c2c1C` here?
Answer: 8.25 nM

Question: Which XC50 does the source give for `COc1cc2nc(Cl)nc(Nc3ccncc3)c2cc1OC` here?
Answer: 1210 nM

Question: `Cc1cc(-c2ccc(NC(=O)N3CCc4cc(Br)c(N5CCN(C)CC5)cc43)cc2)cc(C)n1` was tested. Which XC50 did it give?
Answer: 1010 nM

Question: For `COc1ccc(CC(Cc2ccc(OC)cc2)NCC(O)c2cccc(Cl)c2)cc1` (stereo not drawn), which XC50 is on record?
Answer: 155 nM

Question: Which XC50 does the source give for `CN(C)CCOc1ccc(-c2cc(-c3ccncc3)c(-c3ccc(Cl)c(O)c3)[nH]2)cc1` here?
Answer: 224 nM

Question: How did the XC50 turn out when `COc1ccc2ncc(F)c(CCN3CCC(CNC(=O)C(=O)c4c[nH]c5ccccc45)CC3)c2n1` was run?
Answer: 389 nM

Question: Which XC50 does the source give for `Cc1noc(C)c1-c1cccc(CNCc2ccc(-c3ccc(-c4nc5cc(F)ccc5[nH]4)cc3)cc2)c1` here?
Answer: 212 nM

Question: `CN(C)c1ccc(-c2csc(C(=O)NC3CCN(Cc4ccc(C(C)(C)C)cc4)C3)c2)cc1` (stereo not drawn) was tested. Which XC50 did it give?
Answer: 947 nM

Question: How did the XC50 turn out when `CC(CCCC(=O)Nc1ccc(CC(C)NCCc2cccc(Cl)c2)cc1)NCCc1cccc(Cl)c1` (stereo not drawn) was run?
Answer: 625 nM

Question: For `O=C(Cc1ccccc1)NC(Nc1ccc([N+](=O)[O-])cc1)C(Cl)(Cl)Cl` (stereo not drawn), which XC50 is on record?
Answer: 973 nM

Question: How did the XC50 turn out when `CCCN(CC(=O)NCCc1ccccc1)c1ccc(C#N)c2ccccc12` was run?
Answer: 500 nM

Question: How did the XC50 turn out when `Cc1cccc2nc(-c3cccc(-c4ccc(NC(=O)c5cccc(C(N)=O)c5)cc4)c3)[nH]c12` was run?
Answer: 410 nM

Question: Which XC50 does the source give for `CC[C@H](C)CNC(=O)c1cncc(-c2ccc(CNCCCc3ccccc3)cc2)c1` here?
Answer: 735 nM

Question: With `Cc1cccc(Oc2cccc3[nH]nc(N)c23)c1` as the compound, how does the XC50 read?
Answer: 1040 nM

Question: How did the XC50 turn out when `COc1ccc(CNC2CCN(C)CC2)cc1-c1ccc(S(=O)(=O)NC2CCC2)s1` was run?
Answer: 733 nM

Question: With `Cc1ccc(CNC(=O)[C@H](Cc2ccccc2)Nc2cc(C)nc(NCc3ccccc3C)n2)cc1` as the compound, how does the XC50 read?
Answer: 803 nM

Question: For `c1ccc(CCNCc2ccc(-c3ccc(CNCc4ccc5c(c4)OCO5)cc3)nc2)cc1`, which XC50 is on record?
Answer: 1250 nM

Question: With `O=C(CCc1c[nH]cn1)Nc1cccc(-c2cccc(-c3nc4cc(C(F)(F)F)ccc4[nH]3)c2)c1` as the compound, how does the XC50 read?
Answer: 132 nM

Question: How did the XC50 turn out when `COc1ccc(COc2c(OC)cc(Cc3cnc(N)nc3N)cc2OC)cc1` was run?
Answer: 912 nM

Question: How did the XC50 turn out when `CCc1ccc(CN2CCC(C(=O)Nc3ccc(-c4nc5ccccc5[nH]4)cc3)CC2)o1` was run?
Answer: 610 nM

Question: With `Cn1nc(-c2ccc(NC(=O)Nc3cc(C(F)(F)F)cc(C(F)(F)F)c3)c(F)c2)c2cnc(NCCN3CCOCC3)nc21` as the compound, how does the XC50 read?
Answer: 801 nM

Question: Which XC50 does the source give for `CC(C)(C)c1ccc(NC(=O)c2cccc(CN3CCCN(CC4CCCCC4)CC3)c2)cc1` here?
Answer: 737 nM

Question: `COc1ccc2[nH]ccc(=NN=Cc3cccnc3)c2c1` was tested. Which XC50 did it give?
Answer: 501 nM

Question: `O=C(NC(Cc1ccccc1)C(=O)O)c1cc(=O)c2ccccc2o1` (stereo not drawn) was tested. Which XC50 did it give?
Answer: 191 nM

Question: For `CCCCN(CCCC)CCCN(CCCN(CCCC)CCCC)c1cc(C)nc(Nc2ccc(Br)cc2)n1`, which XC50 is on record?
Answer: 131 nM

Question: For `O=C(NCc1cccc(F)c1)Nc1cccc(-c2cccc(-c3nc4cc(C(F)(F)F)ccc4[nH]3)c2)c1`, which XC50 is on record?
Answer: 330 nM

Question: `N=C(NCc1ccccc1)Nc1nc(-c2ccc(OCCCn3ccnc3)cc2)cs1` was tested. Which XC50 did it give?
Answer: 253 nM

Question: How did the XC50 turn out when `FC(F)(F)c1ccc(-c2cncc(-c3ccc(C(F)(F)F)cc3)n2)cc1` was run?
Answer: 759 nM

Question: Which XC50 does the source give for `COc1ccccc1-n1ccnc1SCC(=O)Nc1cccc(C(F)(F)F)c1` here?
Answer: 160 nM

Question: How did the XC50 turn out when `S=C(NN=Cc1ccccn1)NC1CC2C=CC1C2` (stereo not drawn) was run?
Answer: 721 nM

Question: With `Cc1cc(N2CCC(NS(=O)(=O)c3ccccc3)CC2)nc(Nc2cccc(C#N)c2)n1` as the compound, how does the XC50 read?
Answer: 1350 nM

Question: For `COc1cc(Nc2ncc3c(C)nc(-c4cc5ccccc5[nH]4)n3n2)cc(OC)c1OC`, which XC50 is on record?
Answer: 1020 nM

Question: `O=C(Nc1ccsc1)Nc1cccc(-c2cccc(-c3nc4ccccc4[nH]3)c2)c1` was tested. Which XC50 did it give?
Answer: 117 nM

Question: With `CCOC(=O)c1c(CSc2ccccc2)oc2cc(CN(C)C)c(O)c(Cl)c12` as the compound, how does the XC50 read?
Answer: 657 nM

Question: How did the XC50 turn out when `CN(C)c1ccc(CN2CCCC(CNC(=O)c3ccc(-c4cccc(C(F)(F)F)c4)s3)C2)cc1` (stereo not drawn) was run?
Answer: 1200 nM

Question: With `NC1CCCN(Cc2cccc(-c3ccc(-c4nc5cc(F)ccc5[nH]4)cc3)c2)C1` (stereo not drawn) as the compound, how does the XC50 read?
Answer: 566 nM

Question: With `Cc1nc(C)n(CC(=O)Nc2cccc(-c3cccc(-c4nc5cc(C(F)(F)F)ccc5[nH]4)c3)c2)n1` as the compound, how does the XC50 read?
Answer: 761 nM

Question: With `COc1ccc(C(=O)CC(=O)c2ccc(OC)cc2OC)c(OC)c1` as the compound, how does the XC50 read?
Answer: 300 nM

Question: With `Cc1cccc2nc(-c3ccc(-c4ccc(CN5CCCC(O)C5)cc4)cc3)[nH]c12` (stereo not drawn) as the compound, how does the XC50 read?
Answer: 859 nM

Question: Which XC50 does the source give for `Cc1cccc2nc(-c3ccc(-c4ccc(CNCc5cccc(N)c5)cc4)cc3)[nH]c12` here?
Answer: 565 nM

Question: For `Cc1nc2ccccc2c(=O)n1/N=C/c1ccccc1[N+](=O)[O-]`, which XC50 is on record?
Answer: 221 nM

Question: `CN(C)c1cccc2c1nc(-c1ccco1)n2CC1CCCN1` (stereo not drawn) was tested. Which XC50 did it give?
Answer: 970 nM

Question: `Cc1ccc2oc3cc(-c4nnn[nH]4)ccc3c(=O)c2c1` was tested. Which XC50 did it give?
Answer: 89.4 nM

Question: For `C=C1C[C@@H](n2cnc3c(NC(=O)c4ccccc4)ncnc32)[C@@H](F)[C@@H]1OC(c1ccccc1)(c1ccccc1)c1ccccc1`, which XC50 is on record?
Answer: 145 nM

Question: Which XC50 does the source give for `CN1CCN(CCCN(Cc2cccc(-c3ccc(CNC4CCCC4)cc3)c2)C(=O)/C=C/c2ccccc2)CC1` here?
Answer: 746 nM

Question: With `COc1cc2nc(N3CCC(CNC(=O)c4ccc(-c5ccc(C(F)(F)F)cc5)cc4)CC3)nc(N)c2cc1OC` as the compound, how does the XC50 read?
Answer: 127 nM

Question: `CC(C(=O)N1CCCC1)N1CCN(S(=O)(=O)c2ccc(C(C)(C)C)cc2)CC1` (stereo not drawn) was tested. Which XC50 did it give?
Answer: 636 nM

Question: Which XC50 does the source give for `CC(=O)c1ccc(-c2ccccc2)s1` here?
Answer: 1080 nM

Question: Which XC50 does the source give for `Nc1cc(-c2ccc(Br)cc2O)nc2ccccc12` here?
Answer: 619 nM

Question: With `O=C(/C=C/c1ccccc1F)NC1CCC(CCN2CCc3ccc(-c4cccnc4)cc3CC2)CC1` (stereo not drawn) as the compound, how does the XC50 read?
Answer: 900 nM

Question: `CC1CCC2(CC1)N=C(N)N=C(N)N2OCc1cc2ccccc2c2ccccc12` (stereo not drawn) was tested. Which XC50 did it give?
Answer: 243 nM

Question: How did the XC50 turn out when `N#Cc1ccc2c(c1)CCN(CCC1CCC(NC(=O)c3cccc(-c4ccc(F)cc4)c3)CC1)CC2` (stereo not drawn) was run?
Answer: 822 nM

Question: Which XC50 does the source give for `N#Cc1ccc(CN2CCC(Oc3ccc(NC(=O)c4cccs4)cc3Cl)C2)cc1` (stereo not drawn) here?
Answer: 402 nM

Question: Which XC50 does the source give for `Cc1ccc(N)cc1-c1nc(NC2CC(C)(C)NC(C)(C)C2)nc2c1ccc(=O)n2-c1c(F)cccc1F` here?
Answer: 842 nM

Question: Which XC50 does the source give for `Cc1ccc(NC(=S)N2CCCN(CCCCCNC(=O)/C=C/c3ccc(Cl)c(Cl)c3)CC2)cc1Cl` here?
Answer: 916 nM

Question: How did the XC50 turn out when `O=C(Nc1ccc([N+](=O)[O-])cc1)Nc1nc2ccc(Cl)cc2s1` was run?
Answer: 837 nM

Question: How did the XC50 turn out when `COc1ccc2nccc([C@@H](O)CN3CCC(NCc4cc5ccccc5[nH]4)CC3)c2n1` was run?
Answer: 628 nM

Question: With `O=c1cc(NCCCNCc2ccccc2-c2ccccc2)[nH]c2ccccc12` as the compound, how does the XC50 read?
Answer: 975 nM

Question: Which XC50 does the source give for `COc1ccc2[nH]c(C)cc(=NN=Cc3ccc(Cl)cc3)c2c1` here?
Answer: 228 nM

Question: For `C=C(F)c1sc(CNCCCNc2nc3ccccc3[nH]2)c(C)c1Br`, which XC50 is on record?
Answer: 367 nM

Question: `OCCN1CCN(c2nc(Nc3cccc(F)c3)c3cnn(-c4ccccc4)c3n2)CC1` was tested. Which XC50 did it give?
Answer: 828 nM

Question: For `Cc1ccc(CC(C)NCC(O)c2cccc(Cl)c2)cc1F` (stereo not drawn), which XC50 is on record?
Answer: 742 nM

Question: How did the XC50 turn out when `CN1CC[C@@H](Oc2cc(Nc3nc(-c4ccc(C#N)cc4)cs3)ccc2Cl)C1` was run?
Answer: 821 nM

Question: For `CCN(CC)CCNC(=O)c1ccc(NC(=O)c2oc3c(Cl)cccc3c2C)cc1`, which XC50 is on record?
Answer: 703 nM

Question: For `Cc1cc(Br)cnc1CCCCNC1=NC(=O)CN1C`, which XC50 is on record?
Answer: 366 nM

Question: Which XC50 does the source give for `CCOC(=O)c1c(C)n(-c2ccccc2)c2ccc(O)cc12` here?
Answer: 475 nM

Question: With `Cc1ccc(/C=C/C(=O)NCCCCCN2CCCN(C(=O)Nc3ccc(Cl)c(Cl)c3)CC2)cc1` as the compound, how does the XC50 read?
Answer: 942 nM

Question: `NC(=O)c1cnc2ccc(-c3cncs3)cc2c1Nc1ccc(F)c(Cl)c1` was tested. Which XC50 did it give?
Answer: 182 nM

Question: With `COc1ccc(F)cc1-c1ccc(C(=O)N2CCCN(c3ccc(C#N)cn3)CC2)cc1` as the compound, how does the XC50 read?
Answer: 112 nM

Question: Which XC50 does the source give for `CN(C)c1ccc(C=C2SC(=O)N=C2Nc2ccccc2)cc1` here?
Answer: 32.1 nM
